Here are results for four molecules from patent US20240181136A1, “LOW MOLECULAR WEIGHT HYDROGELS COMPRISING THIOGLYCOLIPIDS” (ARIZONA BOARD OF REGENTS ON BEHALF OF THE UNIVERSITY OF …, priority 2021, published 2024).

Data set [1] is described as follows: Visual assessment of thioglycolipid aggregation and hydrogel formation. The data set is classed as physicochemical. Also on record: key to Visual assessment of aggregation and gelation: G = gel; F = fibrous aggregation; C = clear solution; O = cloudy solution. Conditions: for Hydrogelation on quenching: quenched at temperatures <20° C. As to the method: Preparation of Thioglycolipid Solutions and Hydrogel Fabrication. Aqueous solutions of thioglycolipids were prepared by weighing 2-3 mg of thioglycolipids and adding an appropriate volume of water to make solution samples at desired concentrations in vials. The vials were capped, sealed with Parafilm, and heated to 75° C. (or 85° C. for LacSC12) until the thioglycolipids were completely dissolved, which typically required about 1 min. The samples were then allowed to cool to ambient temperature. Above some minimal concentration, the solution forms hydrogels upon cooling (FIG. 1). While hydrogelation happens in under 1 min, the gels were allowed to equilibrate at room temperature for 15 min before any analysis. To make metastable thiocellobiosides gels, the samples were quenched at −4° C. after dissolution at 75° C. Although the metastable hydrogels also formed in under 1 min, the gels were allowed to equilibrate at −4° C. for 15 min before analysis.
Visual Assessment of Thioglycolipid Hydrogel Formation. A wide range of thioglycolipid solutions were evaluated to establish concentration conditions (wt %) under which hydrogelation occurs and to assess the formation of other phases. For LacSC8 and LacSC12 solutions at concentrations <0.5 wt %, the solutions were either clear (C) or contain large aggregates (O) (i.e., cloudy). These solutions formed partial hydrogels surrounded by clear solution between 0.5 but <1 wt %, and were completely gelled at concentrations of 1 wt % and greater. Solutions of LacSC10 at <2 wt % formed partial hydrogels surrounded by clear liquid but were completely gelled at or above 2 wt %. […] CelSC10 and CelSC12 solutions formed settled fibrous aggregates in clear solution after equilibrating at ambient temperature overnight. […] If retained at 5° C. , the CelSC10 and CelSC12 gels were stable for at least 6 months. […] Powder x-ray diffraction confirmed that these fibrous aggregates were crystalline. Overall, the thioglycolipid concentration at which hydrogelation can be observed can be as low as 0.05 wt %, depending on thioglycolipid system, compared to the typical concentration for hydrogelation of at least 1 wt % commonly reported in the literature, although 0.25-2 wt % is the concentration range wherein these thioglycolipid solutions became fully hydrogelled. The existence of metastable hydrogels and the ability to tune the transformation of hydrogels into crystals may allow their potential use as smart materials for different applications.

The nature of data set [2]: Differential scanning calorimetry of hydrogels (gel-sol phase transition). Format: physicochemical. Conditions: 1 wt % hydrogel; for Phase transition temperature: DSC heating 5° C. per min; for Enthalpy (J/g hydrogel) / Enthalpy (kJ/mol thioglycolipids): gel-sol transition. The protocol: Differential Scanning calorimetry. A Mettler Toledo DSC 823e differential scanning calorimeter, equipped with cooling apparatus, was used for measurement of the phase transition temperature and enthalpy of the gels. Hydrogel samples were first prepared using the fabrication method described above. Then, they were heated to 75° C. (or 85° C. for LacSC12) until they were in the solution state and then pipetted into aluminum, 40 μL DSC pans and capped with lids. The amount of hydrogel in each aluminum pan was controlled to about 6-8 mg. The pans were maintained at 85° C. for 1 min to ensure the samples were in the solution state. Then, they were cooled to 5° C. and maintained at this temperature for 20 min to ensure the formation of hydrogels. […], the samples were heated from 5° C. to 85° C. at a heating rate at 5° C. per min.
Thermal Properties by DSC. Differential scanning calorimetry (DSC) was used to determine the phase transition temperature as well as to explore the possible existence of other lyotropic phases. DSC involves monitoring the enthalpy change during a phase transition, which can be used as a measure of hydrogel stability. The results (Table 2) indicated an endothermic transition between 30° C. and 80° C. for all thioglycolipid hydrogels studied, and these transitions matched those observed visually in bulk solutions. Overall, hydrogels with longer carbon chains had higher thermostability (i.e., higher phase transition temperature). In addition, the LacSCx (x=10,12) hydrogels had higher thermostability than the CelSCx (x=10,12) hydrogels, despite similar phase transition enthalpies. […] However, the LacSC12 and CelSC12 hydrogels required twice the enthalpy compared to the other three.

The mark [3] stands for this setting: thioglycolipid concentration 0.05 wt %, room temperature.
Setting [4] is: thioglycolipid concentration 0.1 wt %, room temperature.
Where [5] appears, read: thioglycolipid concentration 0.25 wt %, room temperature.
[6] abbreviates: thioglycolipid concentration 0.5 wt %, room temperature.
Where [7] appears, read: thioglycolipid concentration 0.75 wt %, room temperature.
Setting [8] is: thioglycolipid concentration 1 wt %, room temperature.
Where [9] appears, read: thioglycolipid concentration 2 wt %, room temperature.
Setting [10] is: thioglycolipid concentration 5 wt %, room temperature.
The mark [11] stands for this setting: thioglycolipid concentration 10 wt %, room temperature.

SMILES strings stand for the structures.

For the molecule `CCCCCCCCS[C@@H]1O[C@H](CO)[C@@H](O[C@@H]2O[C@H](CO)[C@@H](O)[C@H](O)[C@H]2O)[C@H](O)[C@H]1O` [CelSC8], in data set [1] (room temperature, 0.05-10 wt %), the “Visual state of solutions over all concentrations studied” value was “remained as clear solutions at all concentrations studied”. Moreover, the “Visual assessment of aggregation and gelation” value (from here on “Visual assessment”) in data set [1] (setting [3]), in data set [1] (setting [4]), in data set [1] (setting [5]), in data set [1] (setting [6]), in data set [1] (setting [7]) and in data set [1] (setting [8]) was “C” each time. Besides, the “Visual assessment” value in data set [1] (setting [9]), in data set [1] (setting [10]) and in data set [1] (setting [11]) was “C” each time.

Turning to `CCCCCCCCS[C@@H]1O[C@H](CO)[C@@H](O[C@@H]2O[C@H](CO)[C@H](O)[C@H](O)[C@H]2O)[C@H](O)[C@H]1O` [LacSC8], the “Visual assessment” value in data set [1] (setting [3]) is listed as “C”; in data set [1] (setting [4]) it was “C”; in data set [1] (setting [5]) it was “C”; in data set [1] (setting [6]), “G + C”; in data set [1] (setting [7]), “G + C”; in data set [1] (setting [8]), “G”. Besides, the “Visual assessment” value in data set [1] (setting [9]), in data set [1] (setting [10]) and in data set [1] (setting [11]) was “G” in each case. Also, the Phase transition temperature in data set [2] was 38-46 °C. Moreover, in data set [2], the “Enthalpy (J/g hydrogel)” value was found to be 0.20 ± 0.03 J/g hydrogel. In data set [2], the “Enthalpy (kJ/mol thioglycolipids)” value came out at 9.2 ± 1.4 kJ/mol thioglycolipids.

Turning to `CCCCCCCCCCS[C@@H]1O[C@H](CO)[C@@H](O[C@@H]2O[C@H](CO)[C@@H](O)[C@H](O)[C@H]2O)[C@H](O)[C@H]1O` [CelSC10], in data set [1], the Hydrogelation on quenching result is given as “completely hydrogelled”. The “Visual assessment” value in data set [1] (setting [3]) is “F”; in data set [1] (setting [4]), “F”; in data set [1] (setting [5]), “G or F”; in data set [1] (setting [6]), “G or F”; in data set [1] (setting [7]), “G or F”; in data set [1] (setting [8]) it was “G or F”. The “Visual assessment” value in data set [1] (setting [9]), in data set [1] (setting [10]) and in data set [1] (setting [11]) was “G or F” in each case. Further, the Phase transition temperature in data set [2] was 31-37 °C. Besides, the “Enthalpy (J/g hydrogel)” value in data set [2] worked out at 0.18 ± 0.01 J/g hydrogel. The “Enthalpy (kJ/mol thioglycolipids)” value in data set [2] was 9.0 ± 0.6 kJ/mol thioglycolipids.

As to `CCCCCCCCCCCCS[C@@H]1O[C@H](CO)[C@@H](O[C@@H]2O[C@H](CO)[C@@H](O)[C@H](O)[C@H]2O)[C@H](O)[C@H]1O` [CelSC12], the Hydrogelation on quenching result in data set [1] was “completely hydrogelled”. The “Visual assessment” value in data set [1] (setting [3]) is “F”; in data set [1] (setting [4]) it was “F”; in data set [1] (setting [5]), “G or F”; in data set [1] (setting [6]) it was “G or F”; in data set [1] (setting [7]) it was “G or F”; in data set [1] (setting [8]), “G or F”. For the same molecule, the “Visual assessment” value in data set [1] (setting [9]), in data set [1] (setting [10]) and in data set [1] (setting [11]) was “G or F” throughout. For the same molecule, the Phase transition temperature in data set [2] was 42-54 °C. The “Enthalpy (J/g hydrogel)” value in data set [2] was 0.42 ± 0.06 J/g hydrogel. Also, the “Enthalpy (kJ/mol thioglycolipids)” value in data set [2] was determined as 22.3 ± 3.3 kJ/mol thioglycolipids.
